Assay results taken from patent US10344019B2 (priority 2010, dated 2019).
pEC50: −log10 of the molar value.

What was measured:
Assay type in all cases: cell-based
[1] = system: HCV 2a Rluc cells (NS5A chimeric genotype 2a JFH-1 replicon with genotype 2a J6 strain NS5A gene, M31 present); assay: HCV replicon reporter assay, genotype 2a J6 (M31 present); settings: Hepatitis C virus, read-out: 2a J6
Outline: (§1)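 Replicons used: genotype 1b Con1, 1a H77, 2a JFH-1, and a 2a JFH-1 chimera with J6-strain NS5A (M31 present), all dicistronic.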

[2] = system: HCV 4a Rluc cells (NS5A chimeric genotype 1b Con1 replicon with genotype 4a NS5A gene); assay: microbe, parasite or virus in culture; settings: Hepatitis C virus, read-out: 4a
Outline: (§2)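 Replicon cells stably carrying the listed RLuc-encoding dicistronic replicons were seeded and treated with DMSO serial dilutions of compound (10 mM stocks) diluted into culture medium. After 72 h, cells were lysed and Renilla luciferase activity measured. EC50 was derived by non-linear regression.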

[3] = system: HCV 1b RLuc cells (dicistronic genotype 1b Con1 replicon, RLuc reporter); assay: microbe, parasite or virus in culture; settings: Hepatitis C virus, read-out: 1b (nM)
Outline: as §1

[4] = system: HCV 2a JFH-1 Rluc cells (dicistronic genotype 2a JFH-1 replicon, RLuc reporter); assay: microbe, parasite or virus in culture; settings: Hepatitis C virus, genotype 2a JFH-1 replicon; read-out: 2a JFH
Outline: as §1

[5] = system: HCV 3a RLuc cells (NS5A chimeric genotype 1b Con1 replicon with consensus genotype 3a NS5A gene); assay: microbe, parasite or virus in culture; settings: Hepatitis C virus, read-out: 3a, genotype 3a replicon
Outline: as §2

[6] = system: HCV 1a RLuc cells (dicistronic genotype 1a H77 replicon, RLuc reporter); assay: microbe, parasite or virus in culture; settings: Hepatitis C virus, genotype 1a replicon; read-out: 1a
Outline: as §1

[7] = system: HCV 2b Rluc cells (NS5A chimeric genotype 2a JFH-1 replicon with genotype 2b MD2b-1 NS5A gene, M31 present); assay: microbe, parasite or virus in culture; settings: Hepatitis C virus, read-out: 2b
Outline: as §2

SMILES | pEC50 [1] | pEC50 [2] | EC50 [3] | pEC50 [4] | pEC50 [5] | pEC50 [6] | pEC50 [7]
COC[C@H]1C[C@@H](c2nc3ccc4cc(-c5ccc(-c6cnc([C@@H]7CCCN7C(=O)[C@H](NC(=O)OC)c7ccccc7)[nH]6)cc5)ccc4c3[nH]2)N(C(=O)[C@@H](NC(=O)OC)C(C)C)C1 [Example 415] | 9.00 to 12.00 | 9.00 to 12.00 | 0.034 nM | 9.00 to 12.00 | 9.00 to 12.00 | 9.00 to 12.00 | 9.00 to 12.00
COC(=O)N[C@H](C(=O)N1CCC[C@H]1c1nc2ccc3cc(-c4ccc5c(ccc6nc([C@@H]7C[C@H](C#N)CN7C(=O)[C@@H](NC(=O)OC)C(C)C)[nH]c65)c4)ccc3c2[nH]1)C(C)C [Example 416] | 9.00 to 12.00 | 9.00 to 12.00 | 0.043 nM | 9.00 to 12.00 | 9.00 to 12.00 | 9.00 to 12.00 | 7.36 to 9.00
COC[C@H]1C[C@@H](c2nc3ccc4cc(-c5ccc(-c6cnc([C@@H]7CCCN7C(=O)[C@@H](NC(=O)OC)C(C)C)[nH]6)cc5)ccc4c3[nH]2)N(C(=O)[C@@H](NC(=O)OC)C(C)C)C1 [Example 417] | 7.36 to 9.00 | 9.00 to 12.00 | 0.024 nM | 9.00 to 12.00 | 9.00 to 12.00 | 9.00 to 12.00 | 7.36 to 9.00
CC(=O)N[C@@H](C(=O)N1CCC[C@H]1c1ncc(-c2cc3c4c(c2)OCc2cc(-c5cnc([C@@H]6CCCN6C(=O)[C@H](NC(C)=O)c6ccccc6)[nH]5)cc(c2-4)OC3)[nH]1)c1ccccc1 [Example 419] | 9.00 to 12.00 | 9.00 to 12.00 | 0.786 nM | 9.00 to 12.00 | 9.00 to 12.00 | 7.36 to 9.00 | 9.00 to 12.00
COC(=O)NC(C(=O)N1CCC[C@H]1c1ncc(-c2cc3c4c(c2)OCc2cc(-c5[nH]c([C@@H]6CCCN6C(=O)C(NC(=O)OC)c6cccnc6)nc5Cl)cc(c2-4)OC3)[nH]1)c1cccnc1 (stereo partly shown) [Example 420] | 7.36 to 9.00 | 8.30 to 9.00 | 4.66 nM | 9.00 to 12.00 | 9.00 to 12.00 | 7.36 to 9.00 | 7.36 to 9.00
COC(=O)N[C@@H](C(=O)N1CCC[C@H]1c1nc(Cl)c(-c2cc3c4c(c2)OCc2cc(-c5[nH]c([C@@H]6CCCN6C(=O)[C@H](NC(=O)OC)c6ccccc6)nc5Cl)cc(c2-4)OC3)[nH]1)c1ccccc1 [Example 421] | 9.00 to 12.00 | 9.00 to 12.00 | 0.041 nM | 9.00 to 12.00 | 9.00 to 12.00 | 9.00 to 12.00 | 9.00 to 12.00
COC(=O)N[C@H](C(=O)N1CCC[C@H]1c1nc2ccc3cc(-c4ccc5c(ccc6nc([C@@H]7C[C@@H]8CCC[C@@H]8N7C(=O)[C@@H](NC(=O)OC)C(C)C)[nH]c65)c4)ccc3c2[nH]1)C(C)C [Example 428] | 9.00 to 12.00 | 9.00 to 12.00 | 0.011 nM | 9.00 to 12.00 | 9.00 to 12.00 | 9.00 to 12.00 | 7.36 to 9.00
COC(=O)N[C@H](C(=O)N1CCC[C@H]1c1nc2ccc3cc(-c4ccc5c(ccc6nc([C@@H]7[C@@H]8CC[C@@H](C8)N7C(=O)[C@H](NC(=O)OC)c7ccccc7)[nH]c65)c4)ccc3c2[nH]1)C(C)C [Example 429] | 7.36 to 9.00 | 9.00 to 12.00 | 0.033 nM | 9.00 to 12.00 | 9.00 to 12.00 | 9.00 to 12.00 | 7.36 to 9.00
CN(C)C(=O)N[C@@H](C(=O)N1CCC[C@H]1c1ncc(-c2cc3c4c(c2)OCc2cc(-c5cnc([C@@H]6CCCN6C(=O)[C@H](NC(=O)N(C)C)c6ccccc6)[nH]5)cc(c2-4)OC3)[nH]1)c1ccccc1 [Example 431] | 9.00 to 12.00 | 9.00 to 12.00 | 0.436 nM | 9.00 to 12.00 | 9.00 to 12.00 | 9.00 to 12.00 | 9.00 to 12.00
COC(=O)N[C@H](C(=O)N1CCC[C@H]1c1nc2ccc3cc(-c4ccc(-c5cnc([C@@H]6CCCN6C(=O)[C@H](NC(=O)OC)c6ccccc6)[nH]5)cc4C#Cc4ccccc4)ccc3c2[nH]1)C(C)C [Example 439] | 7.36 to 9.00 | 9.00 to 12.00 | 0.004 nM | 9.00 to 12.00 | 9.00 to 12.00 | 9.00 to 12.00 | < 7.36
